Data published in the supplement of paper PMC10307832.

Assays:
Assay in all cases: relative viability (nuclei count vs DMSO), 5 days (fraction); higher = more cells survive
NCI-H3122 = system: NCI-H3122
Procedure, shortened: (§1)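 Each reported value is a median over duplicate plates. It expresses relative viability: treated-well nuclei count divided by vehicle-well nuclei count. Lung cancer cell lines in 1536-well plates were dosed by pin tool a day after seeding, alone with one drug or with a fixed anchor-drug dose plus five library-drug doses (not always all listed) in √10 steps, and nuclei were counted after 5 days.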

NCI-H1395 = system: NCI-H1395
Procedure, shortened: as §1

NCI-H460 = system: NCI-H460
Procedure, shortened: as §1

UMC-11 = system: UMC-11
Procedure, shortened: as §1

CAL-12T = system: CAL-12T
Procedure, shortened: as §1

LOU-NH91 = system: LOU-NH91
Procedure, shortened: as §1

RERF-LC-KJ = system: RERF-LC-KJ
Procedure, shortened: as §1

ChaGo-K-1 = system: ChaGo-K-1
Procedure, shortened: as §1

NCI-H2087 = system: NCI-H2087
Procedure, shortened: as §1

NCI-H1651 = system: NCI-H1651
Procedure, shortened: as §1

NCI-H2228 = system: NCI-H2228
Procedure, shortened: as §1

NCI-H1755 = system: NCI-H1755
Procedure, shortened: as §1

NCI-H2405 = system: NCI-H2405
Procedure, shortened: as §1

NCI-H1944 = system: NCI-H1944
Procedure, shortened: as §1

ABC-1 = system: ABC-1
Procedure, shortened: as §1

NCI-H1793 = system: NCI-H1793
Procedure, shortened: as §1

LC-2-ad = system: LC-2-ad
Procedure, shortened: as §1

NCI-H2170 = system: NCI-H2170
Procedure, shortened: as §1

LU99A = system: LU99A
Procedure, shortened: as §1

PC-3 [JPC-3] = system: PC-3 [JPC-3]
Procedure, shortened: as §1

Molecule `COc1nc(C)cnc1NS(=O)(=O)c1cccnc1-c1ccc(-c2nnco2)cc1` [Zibotentan] + CCNC(=O)c1noc(-c2cc(C(C)C)c(O)cc2O)c1-c1ccc(CN2CCOCC2)cc1 [Luminespib] (partner 0.01 µM) has a relative viability (NCI-H3122; first compound 0.08 µM) of 0.0904, a relative viability (NCI-H3122; first compound 0.253 µM) of 0.112 and a relative viability (NCI-H3122; first compound 0.8 µM) of 0.0537. For the same molecule, the relative viability (NCI-H3122; first compound 2.53 µM) was 0.104, the relative viability (NCI-H1395; first compound 0.08 µM) was 0.725 and the relative viability (NCI-H1395; first compound 0.253 µM) was 0.724. For the same molecule, the relative viability (NCI-H1395; first compound 0.8 µM) was 0.649, the relative viability (NCI-H1395; first compound 2.53 µM) was 0.754 and the relative viability (NCI-H460; first compound 0.08 µM) was 0.036. For the same molecule, the relative viability (NCI-H460; first compound 0.253 µM) was 0.0258, the relative viability (NCI-H460; first compound 0.8 µM) was 0.0276 and the relative viability (NCI-H460; first compound 2.53 µM) was 0.0332. For the same molecule, the relative viability (UMC-11; first compound 0.08 µM) was 1.1, the relative viability (UMC-11; first compound 0.253 µM) was 0.974 and the relative viability (UMC-11; first compound 0.8 µM) was 0.978. The relative viability (UMC-11; first compound 2.53 µM) was 0.997, the relative viability (CAL-12T; first compound 0.08 µM) was 0.598 and the relative viability (CAL-12T; first compound 0.253 µM) was 0.123. It also gave a relative viability (CAL-12T; first compound 0.8 µM) of 0.415, a relative viability (CAL-12T; first compound 2.53 µM) of 0.418 and a relative viability (LOU-NH91; first compound 0.08 µM) of 0.33. It also gave a relative viability (LOU-NH91; first compound 0.253 µM) of 0.315, a relative viability (LOU-NH91; first compound 0.8 µM) of 0.382 and a relative viability (LOU-NH91; first compound 2.53 µM) of 0.364. It also gave a relative viability (RERF-LC-KJ; first compound 0.08 µM) of 1.3, a relative viability (RERF-LC-KJ; first compound 0.253 µM) of 1.18 and a relative viability (RERF-LC-KJ; first compound 0.8 µM) of 1.44. The relative viability (RERF-LC-KJ; first compound 2.53 µM) was 1.35, the relative viability (ChaGo-K-1; first compound 0.08 µM) was 0.568 and the relative viability (ChaGo-K-1; first compound 0.253 µM) was 0.683. For the same molecule, the relative viability (ChaGo-K-1; first compound 0.8 µM) was 0.588, the relative viability (ChaGo-K-1; first compound 2.53 µM) was 0.503 and the relative viability (NCI-H2087; first compound 0.08 µM) was 0.168. It also gave a relative viability (NCI-H2087; first compound 0.253 µM) of 0.171, a relative viability (NCI-H2087; first compound 0.8 µM) of 0.169 and a relative viability (NCI-H2087; first compound 2.53 µM) of 0.124. It also gave a relative viability (NCI-H1651; first compound 0.08 µM) of 0.802, a relative viability (NCI-H1651; first compound 0.253 µM) of 0.484 and a relative viability (NCI-H1651; first compound 0.8 µM) of 0.958. The relative viability (NCI-H1651; first compound 2.53 µM) was 0.796, the relative viability (NCI-H2228; first compound 0.08 µM) was 0.154 and the relative viability (NCI-H2228; first compound 0.253 µM) was 0.134. The relative viability (NCI-H2228; first compound 0.8 µM) was 0.157, the relative viability (NCI-H2228; first compound 2.53 µM) was 0.191 and the relative viability (NCI-H1755; first compound 0.08 µM) was 0.338. The relative viability (NCI-H1755; first compound 0.253 µM) was 0.558, the relative viability (NCI-H1755; first compound 0.8 µM) was 0.489 and the relative viability (NCI-H1755; first compound 2.53 µM) was 0.252. For the same molecule, the relative viability (NCI-H2405; first compound 0.08 µM) was 0.703, the relative viability (NCI-H2405; first compound 0.253 µM) was 0.541 and the relative viability (NCI-H2405; first compound 0.8 µM) was 0.774. It also gave a relative viability (NCI-H2405; first compound 2.53 µM) of 0.8, a relative viability (NCI-H1944; first compound 0.08 µM) of 0.732 and a relative viability (NCI-H1944; first compound 0.253 µM) of 0.694. The relative viability (NCI-H1944; first compound 0.8 µM) was 0.75, the relative viability (NCI-H1944; first compound 2.53 µM) was 0.742 and the relative viability (ABC-1; first compound 0.08 µM) was 0.48. The relative viability (ABC-1; first compound 0.8 µM) was 0.694, the relative viability (ABC-1; first compound 2.53 µM) was 0.696 and the relative viability (NCI-H1793; first compound 0.08 µM) was 0.172. For the same molecule, the relative viability (NCI-H1793; first compound 0.253 µM) was 0.169, the relative viability (NCI-H1793; first compound 0.8 µM) was 0.225 and the relative viability (NCI-H1793; first compound 2.53 µM) was 0.169. The relative viability (LC-2-ad; first compound 0.08 µM) was 1.25, the relative viability (LC-2-ad; first compound 0.8 µM) was 1.32 and the relative viability (LC-2-ad; first compound 2.53 µM) was 1.06. The relative viability (NCI-H2170; first compound 0.08 µM) was 0.397, the relative viability (NCI-H2170; first compound 0.253 µM) was 0.721 and the relative viability (NCI-H2170; first compound 0.8 µM) was 0.646. For the same molecule, the relative viability (NCI-H2170; first compound 2.53 µM) was 0.691, the relative viability (LU99A; first compound 0.08 µM) was 0.275 and the relative viability (LU99A; first compound 0.253 µM) was 0.242. For the same molecule, the relative viability (LU99A; first compound 0.8 µM) was 0.245, the relative viability (LU99A; first compound 2.53 µM) was 0.243 and the relative viability (PC-3 [JPC-3]; first compound 0.08 µM) was 0.692. For the same molecule, the relative viability (PC-3 [JPC-3]; first compound 0.253 µM) was 0.738, the relative viability (PC-3 [JPC-3]; first compound 0.8 µM) was 0.774 and the relative viability (PC-3 [JPC-3]; first compound 2.53 µM) was 0.718.
